Reference: patent US5849729A, “Use of hydrolyzed cocoa butter for percutaneous absorption” (Hershey Foods Corporation, priority 1995, dated 1998)
Where “and” joins values, the source holds several entries; their conditions need not be identical. Equal entries are not always repeated. Entries after “also recorded” stand apart in the source; their conditions may differ. Where two headings read alike, the source gives them in different places.

How the values were obtained:
[1] = cited from earlier work
[2] = In-vitro percutaneous absorption of retinoic acid and triamcinolone acetonide from two cocoa butter vehicles (Franz cells, 48 h); conditions: for Penet (Total Penetration) / % Abs (% Absorbed) / Total Penetration / % Absorbed / total absorption: 48 h; for % Abs (% Absorbed) / % Absorbed / total absorption: percent of applied dose
Text: The objective of this study was to measure the permeation of retinoic acid and triamcinolone acetonide through human skin in-vitro from two cocoa butter vehicles.
Two cocoa butter vehicles supplied by Hershey Foods Corporation were utilized: (1) pure cocoa butter and (2) partially hydrolyzed cocoa butter emulsion. Radioactive [11,12-^3 H] [retinoic acid (NET 920, Lot 2930-067, specific activity 1 mCi/ml) and [6,7-^3 H]-triamcinolone acetonide (NET 470, Lot 2904-170, specific activity 1 mCi/ml) were obtained from Dupont-New England Nuclear Corporation, Boston, Mass.
Each of the two cocoa butter vehicles was spiked separately with ^3 H-retinoic acid and ^3 H-Triamcinolone acetonide to give a total of four radioactive formulations for study. This was done by adding 25 μl (containing 25 μCi) of each tracer solution to approximately 1 gram of each vehicle and mixing with the tip of the dispensing micropipette. The pure cocoa butter vehicle was liquified by holding it under warm tap water prior to spiking. This was not done with the partially hydrolyzed cocoa butter emulsion. Neither formulation was used for three days after spiking to allow for diffusional mixing to take place. Final radioactive concentrations of each formulation were: […]
Human trunk skin without obvious signs of disease was used throughout. It was obtained within 24 hours of death, dermatomed to a thickness of approximately 0.25 mm, cryopreserved and sealed in water vapor-impermeableplastic bags. It was stored at -70° C. until the day of use then thawed by placing the bag in 37° C. water.
Skin from a single donor was cut into multiple sections large enough to fit on 0.8 cm^2 Franz cells. The dermal chamber was filled with isotonic saline, pH 7.4, into which a small magnetic stirring bar was placed. The epidermal chamber was left open to the ambient laboratory environment, approximately 22° C. and 40-60% RH. The cells were placed in a diffusion apparatus in which the dermal receptor solution was stirred magnetically at 600 RPM and its temperature maintained at 37° C.
To assure the integrity of each skin section, its permeability to tritiated water was determined before application of the test formulations. Following a brief (0.5-1 hour) equilibration period, 150 μl ^3 H2 O (specific activity 0.3 μCi/ml) was layered across the top of the skin section so that the entire exposed surface was covered. After 5 minutes the aqueous layer was removed and the surface of the skin carefully blotted dry. At t=0.5 hour the saline receptor phase was removed and analyzed for radioactive content by liquid scintillation counting. Skin specimens in which absorption of ^3 H2 O was less than 1.25 μl were considered acceptable.
Subsequently, each test formulation was applied at a target dose of 10 mg (cream) or 10 μl (butter). The cream formulation (partially hydrolyzed cocoa butter emulsion) was applied from the smooth, rounded-tip of a glass rod, the exact amount determined by weighing the rod before and after application. The butter formulation (pure cocoa butter) was first liquified under warm tap water, allowed to cool to room temperature, then applied with a 10 μl positive displacement micropipette prior to resolidifying. At 4, 8, 12, 24, 36 and 48 hours the receptor solution was removed in its entirety, replaced with fresh solution, and a 1 ml aliquot taken and assayed for radioactive content by liquid scintillation counting.
A 1 ml aliquot of each receptor sample containing ^3 H2 O, ^3 H-retinoic acid, or ^3 H-triamcinolone acetonide was placed in a 7 ml glass scintillation vial and gelled by the addition of 5 ml Opti-Fluor (Packard Instrument Co., Meriden, Conn.). These were counted in a Packard Tri-Carb Model 1900CA Liquid scintillation Analyzer equipped with internal standard and automatic quench correction.

[3] = butter (pure cocoa butter), individual skin sections, listed as TRIAMINOLONE ACETONIDE
[4] = butter, average of three donors
[5] = cream (partially hydrolyzed cocoa butter emulsion), individual skin sections, listed as TRIAMINOLONE ACETONIDE

## CN(C)C=O [Dimethylformamide]
[1]; topical use, in words
  side effects: a sensation of burning and erythema on the skin

## C[S+](C)[O-] [dimethyl sulfoxide]
[1]; topical use, in words
  side effects: a foul taste and body odor, burning and erythema on the skin; a reduction in the relucency of the lens cortex and tissue necrosis

## CNC(C)=O [methylacetamide]
[1]; in vivo
  side effects: a sensation of burning and erythema on the skin

## CC1(C)O[C@@H]2C[C@H]3[C@@H]4CCC5=CC(=O)C=C[C@]5(C)[C@@]4(F)[C@@H](O)C[C@]3(C)[C@]2(C(=O)CO)O1 [triamcinolone acetonide]
[2]; both cocoa butter formulations, in words
  rate of absorption profile / flux: absorption continues to increase at a slow rate; also recorded: relatively high flux rates
[2]; [3]
  Penet (Total Penetration): 524.71 and 252.43 and 268.51 and 390.54 and 1505.05 and 2037.47 and 2111.25 and 1993.70 and 1506.22 and 770.57 and 821.16 and 931.82
  % Abs (% Absorbed): 5.24% and 2.52% and 2.86% and 3.90% and 15.04% and 20.36% and 21.10% and 19.92% and 15.05% and 7.70% and 8.21% and 9.31%
[2]; butter (pure cocoa butter), sample R1, mid-t 2 h, individual skin sections, listed as TRIAMINOLONE ACETONIDE
  Rate of absorption, R1: 4.39 ng/cm^2 /hr and 1.60 ng/cm^2 /hr and 4.85 ng/cm^2 /hr and 2.94 ng/cm^2 /hr and 5.03 ng/cm^2 /hr and 5.86 ng/cm^2 /hr and 13.93 ng/cm^2 /hr and 14.30 ng/cm^2 /hr and 10.13 ng/cm^2 /hr and 6.97 ng/cm^2 /hr and 3.85 ng/cm^2 /hr and 4.31 ng/cm^2 /hr
[2]; butter (pure cocoa butter), sample R3, mid-t 10 h, individual skin sections, listed as TRIAMINOLONE ACETONIDE
  Rate of absorption, R3: 4.10 ng/cm^2 /hr and 1.98 ng/cm^2 /hr and 3.21 ng/cm^2 /hr and 1.85 ng/cm^2 /hr and 39.10 ng/cm^2 /hr and 54.60 ng/cm^2 /hr and 49.52 ng/cm^2 /hr and 41.58 ng/cm^2 /hr and 31.25 ng/cm^2 /hr and 11.42 ng/cm^2 /hr and 13.09 ng/cm^2 /hr and 17.61 ng/cm^2 /hr
[2]; butter (pure cocoa butter), sample R4, mid-t 18 h, individual skin sections, listed as TRIAMINOLONE ACETONIDE
  Rate of absorption, R4: 10.64 ng/cm^2 /hr and 4.64 ng/cm^2 /hr and 5.65 ng/cm^2 /hr and 6.96 ng/cm^2 /hr and 41.81 ng/cm^2 /hr and 61.91 ng/cm^2 /hr and 60.58 ng/cm^2 /hr and 63.34 ng/cm^2 /hr and 42.50 ng/cm^2 /hr and 16.59 ng/cm^2 /hr and 19.25 ng/cm^2 /hr and 21.60 ng/cm^2 /hr
[2]; butter (pure cocoa butter), sample R5, mid-t 30 h, individual skin sections, listed as TRIAMINOLONE ACETONIDE
  Rate of absorption, R5: 16.77 ng/cm^2 /hr and 7.47 ng/cm^2 /hr and 7.89 ng/cm^2 /hr and 11.61 ng/cm^2 /hr and 44.77 ng/cm^2 /hr and 55.96 ng/cm^2 /hr and 68.48 ng/cm^2 /hr and 56.67 ng/cm^2 /hr and 44.03 ng/cm^2 /hr and 24.96 ng/cm^2 /hr and 28.20 ng/cm^2 /hr and 30.50 ng/cm^2 /hr
[2]; butter (pure cocoa butter), sample R6, mid-t 42 h, individual skin sections, listed as TRIAMINOLONE ACETONIDE
  Rate of absorption, R6: 23.72 ng/cm^2 /hr and 12.43 ng/cm^2 /hr and 12.16 ng/cm^2 /hr and 19.97 ng/cm^2 /hr and 48.08 ng/cm^2 /hr and 65.20 ng/cm^2 /hr and 60.71 ng/cm^2 /hr and 62.32 ng/cm^2 /hr and 49.91 ng/cm^2 /hr and 30.50 ng/cm^2 /hr and 30.09 ng/cm^2 /hr and 34.64 ng/cm^2 /hr
[2]; [4]
  Total Penetration: 1094.29
  % Absorbed / total absorption: 10.9%
[2]; butter, R1, mid-t 2 h, average of three donors
  Rate of absorption, R1: 6.52 ng/cm^2 /hr
[2]; butter, R3, mid-t 10 h, average of three donors
  Rate of absorption, R3: 22.44 ng/cm^2 /hr
[2]; butter, R4, mid-t 18 h, average of three donors
  Rate of absorption, R4: 29.62 ng/cm^2 /hr
[2]; butter, R5, mid-t 30 h, average of three donors
  Rate of absorption, R5: 33.11 ng/cm^2 /hr
[2]; butter, R6, mid-t 42 h, average of three donors
  Rate of absorption, R6: 37.48 ng/cm^2 /hr
[2]; butter, average of three donors, listed as Triamcinalone
  % Absorbed / total absorption: 10.93%
[2]; comparison of both formulations, in words
  rate of absorption, cream versus butter: The cream formulation gives a slightly higher rate of absorption than the butter
[2]; [5]
  Penet (Total Penetration): 254.48 and 668.59 and 249.45 and 118.36 and 2508.36 and 2312.05 and 2871.31 and 2499.51 and 947.51 and 935.57 and 1068.65 and 1271.22
  % Abs (% Absorbed): 2.49% and 6.22% and 2.57% and 1.23% and 19.85% and 17.85% and 23.91% and 21.77% and 9.37% and 8.49% and 9.22% and 13.72%
[2]; cream (partially hydrolyzed cocoa butter emulsion), sample R1, mid-t 2 h, individual skin sections, listed as TRIAMINOLONE ACETONIDE
  Rate of absorption, R1: 3.04 ng/cm^2 /hr and 1.67 ng/cm^2 /hr and 5.26 ng/cm^2 /hr and 1.52 ng/cm^2 /hr and 18.29 ng/cm^2 /hr and 17.50 ng/cm^2 /hr and 18.71 ng/cm^2 /hr and 12.90 ng/cm^2 /hr and 4.30 ng/cm^2 /hr and 2.33 ng/cm^2 /hr and 15.97 ng/cm^2 /hr and 3.83 ng/cm^2 /hr
[2]; cream (partially hydrolyzed cocoa butter emulsion), sample R3, mid-t 10 h, individual skin sections, listed as TRIAMINOLONE ACETONIDE
  Rate of absorption, R3: 3.36 ng/cm^2 /hr and 3.23 ng/cm^2 /hr and 5.64 ng/cm^2 /hr and 0.96 ng/cm^2 /hr and 59.17 ng/cm^2 /hr and 56.60 ng/cm^2 /hr and 68.40 ng/cm^2 /hr and 55.15 ng/cm^2 /hr and 21.00 ng/cm^2 /hr and 18.75 ng/cm^2 /hr and 20.37 ng/cm^2 /hr and 22.71 ng/cm^2 /hr
[2]; cream (partially hydrolyzed cocoa butter emulsion), sample R4, mid-t 18 h, individual skin sections, listed as TRIAMINOLONE ACETONIDE
  Rate of absorption, R4: 5.74 ng/cm^2 /hr and 12.44 ng/cm^2 /hr and 6.13 ng/cm^2 /hr and 2.07 ng/cm^2 /hr and 63.18 ng/cm^2 /hr and 60.43 ng/cm^2 /hr and 79.96 ng/cm^2 /hr and 72.84 ng/cm^2 /hr and 26.40 ng/cm^2 /hr and 25.54 ng/cm^2 /hr and 27.04 ng/cm^2 /hr and 31.56 ng/cm^2 /hr
[2]; cream (partially hydrolyzed cocoa butter emulsion), sample R5, mid-t 30 h, individual skin sections, listed as TRIAMINOLONE ACETONIDE
  Rate of absorption, R5: 7.24 ng/cm^2 /hr and 17.67 ng/cm^2 /hr and 6.59 ng/cm^2 /hr and 3.75 ng/cm^2 /hr and 73.13 ng/cm^2 /hr and 69.96 ng/cm^2 /hr and 81.15 ng/cm^2 /hr and 70.51 ng/cm^2 /hr and 30.37 ng/cm^2 /hr and 30.85 ng/cm^2 /hr and 35.59 ng/cm^2 /hr and 41.22 ng/cm^2 /hr
[2]; cream (partially hydrolyzed cocoa butter emulsion), sample R6, mid-t 42 h, individual skin sections, listed as TRIAMINOLONE ACETONIDE
  Rate of absorption, R6: 10.49 ng/cm^2 /hr and 37.33 ng/cm^2 /hr and 7.93 ng/cm^2 /hr and 5.35 ng/cm^2 /hr and 83.06 ng/cm^2 /hr and 70.37 ng/cm^2 /hr and 91.88 ng/cm^2 /hr and 81.89 ng/cm^2 /hr and 28.80 ng/cm^2 /hr and 30.03 ng/cm^2 /hr and 32.01 ng/cm^2 /hr and 46.16 ng/cm^2 /hr
[2]; cream, average of three donors
  Total Penetration: 1308.76
  % Absorbed / total absorption: 11.4%
[2]; cream, average of three donors, listed as Triamcinalone
  % Absorbed / total absorption: 11.39%
[2]; in words
  difference between partially hydrolyzed cocoa butter emulsion and pure cocoa butter as delivery vehicle: no appreciable difference
[2]; with cocoa butter and partially hydrolyzed cocoa butter emulsion (both vehicles)
  average absorption: about 11%
